Experimental findings from patent publication US20180305332A1, “Bispiperidinyl Derivatives as Liver X Receptor Beta Agonists, Compositions, and Their Use” (Merck Sharp & Dohme Corp., priority 2015, published 2018) are described below.

The target of experiment [1] is T1, GST tagged LXRalpha LBD (ligand binding domain) (Homo sapiens, UniProt Q13133).
T1 construct: purchased Invitrogen pv4655
T1 sequence (Q13133 209-447 limits assumed): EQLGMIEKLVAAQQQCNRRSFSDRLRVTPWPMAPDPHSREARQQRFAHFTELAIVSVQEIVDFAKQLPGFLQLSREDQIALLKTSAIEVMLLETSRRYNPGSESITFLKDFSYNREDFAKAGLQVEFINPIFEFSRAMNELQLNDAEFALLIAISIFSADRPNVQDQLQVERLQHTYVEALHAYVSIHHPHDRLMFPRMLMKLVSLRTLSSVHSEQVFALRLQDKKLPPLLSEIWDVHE
Put plainly: LanthaScreen TR-FRET Liver X Receptor Coactivator Assay, LXR alpha-LBD. The experiment is classed as biochemical. The conditions noted are these: relative to reference T0901317; for LXR alpha IP (nM) / pEC50: Inflection Point (potency), co-activator recruitment; for Emax: read-out: LXR alpha act @ max dose (%); for pEC50: read-out: LXR alpha IP. In short, it runs like this:
(§1)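 Values are inflection points (potency) and Emax (efficacy) expressed against reference agonist T0901317. Coactivator recruitment is measured by TR-FRET between terbium anti-GST antibody on the LBD and a fluorescein-labelled peptide, following room-temperature incubation.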
For orientation: Time-resolved FRET reads energy transfer from a long-lived donor to a nearby acceptor.

Experiment [2] addresses T2, GST tagged LXRbeta LBD (ligand binding domain) (Homo sapiens, UniProt P55055).
T2 construct: purchased Invitrogen pv4658.pps
T2 sequence (P55055 222-460 limits assumed): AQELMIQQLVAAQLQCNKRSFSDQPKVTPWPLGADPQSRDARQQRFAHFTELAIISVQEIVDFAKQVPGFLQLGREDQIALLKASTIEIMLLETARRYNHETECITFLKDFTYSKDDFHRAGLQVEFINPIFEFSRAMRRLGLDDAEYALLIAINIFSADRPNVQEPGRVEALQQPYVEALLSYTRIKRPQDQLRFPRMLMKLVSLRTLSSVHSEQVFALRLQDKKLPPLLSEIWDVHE
Put plainly: LanthaScreen TR-FRET Liver X Receptor Coactivator Assay, LXR beta-LBD. The experiment is classed as biochemical. The note with it: relative to reference T0901317; for pEC50: Inflection Point (potency), co-activator recruitment, read-out: LXR beta IP; for Emax: read-out: LXR beta act @ max dose (%). In short, it runs like this: as §1

[3] abbreviates: activity at max dose (efficacy).

pEC50: −log10 of the molar value.

Regarding `CN(C)C(=O)c1ccc(N2CCC(C3CCN(C(=O)C(O)(CCc4ccccc4)C(F)(F)F)CC3)CC2)cc1Cl` (centres unmarked) [Example A-49, 2-chloro-4-{1′-[2-hydroxy-4-phenyl-2-(trifluoromethyl)butanoyl]-4,4′-bipiperidin-1-yl}-N,N-dimethylbenzamide], the “LXR alpha IP (nM)” value in experiment [1] was “NO IP”. In addition, the Emax stood at 16% in experiment [1] (setting [3]) and 32% in experiment [2] (setting [3]). Further, the pEC50 in experiment [2] was 6.37.
For `CN(C)C(=O)c1ccc(N2CCC(C3CCN(C(=O)C(O)(c4cccc(Cl)c4)C(F)(F)F)CC3)CC2)cc1Cl` (centres unmarked) [Example A-50, 2-chloro-4-{1′-[2-(3-chlorophenyl)-3,3,3-trifluoro-2-hydroxypropanoyl]-4,4′-bipiperidin-1-yl}-N,N-dimethylbenzamide], the pEC50 in experiment [1] was 6.00; in experiment [2], 7.03. Further, the Emax in experiment [1] (setting [3]) amounted to 20%; in experiment [2] (setting [3]), 99%.
Turning to `CN(C)C(=O)c1ccc(N2CCC(C3CCN(C(=O)C(O)(c4ccccc4)C4CCC4)CC3)CC2)cc1Cl` (centres unmarked) [Example A-51, 2-chloro-4-{1′-[cyclobutyl(hydroxy)phenylacetyl]-4,4′-bipiperidin-1-yl}-N,N-dimethylbenzamide], the values for the pEC50 in experiment [1] and in experiment [2] were 5.80 and 6.89, respectively. The results for the Emax in experiment [1] (setting [3]) and in experiment [2] (setting [3]) were 33% and 109%, respectively.
Regarding `CN(C)C(=O)c1ccc(N2CCC(C3CCN(C(=O)C(O)(c4ccccc4)C4CC4)CC3)CC2)cc1Cl` (centres unmarked) [Example A-52, 2-chloro-4-{1′-[cyclopropyl(hydroxy)phenylacetyl]-4,4′-bipiperidin-1-yl}-N,N-dimethylbenzamide], the pEC50 in experiment [1] was 5.69; in experiment [2], 6.77. For the same molecule, the Emax in experiment [1] (setting [3]) came out at 22%; in experiment [2] (setting [3]), 96%.
With `CN(C)C(=O)c1ccc(N2CCC(C3CCN(C(=O)[C@@](C)(O)c4ccccc4)CC3)CC2)cc1Cl` [Example A-53, 2-chloro-4-{1′-[(2S)-2-hydroxy-2-phenylpropanoyl]-4,4′-bipiperidin-1-yl}-N,N-dimethylbenzamide], the pEC50 is 5.49 in experiment [1] and 6.59 in experiment [2]. For the same molecule, the Emax in experiment [1] (setting [3]) was determined as 29%; in experiment [2] (setting [3]), 108%.
For `CN(C)C(=O)c1ccc(N2CCC(C3CCN(C(=O)C(O)(c4ccccc4)C(F)(F)C(F)(F)C(F)(F)F)CC3)CC2)cc1Cl` (centres unmarked) [Example A-54, 2-chloro-4-[1′-(3,3,4,4,5,5,5-heptafluoro-2-hydroxy-2-phenylpentanoyl)-4,4′-bipiperidin-1-yl]-N,N-dimethylbenzamide], in that order: 6.08, 6.39, 15% and 75%.
Take `CN(C)C(=O)c1ccc(N2CCC(C3CCN(C(=O)C(O)(c4ccccc4)C(F)(F)C(F)(F)C(F)(F)F)CC3)CC2)cc1Cl` (centres unmarked) [Example A-55, 2-chloro-4-[1′-(3,3,4,4,5,5,5-heptafluoro-2-hydroxy-2-phenylpentanoyl)-4,4′-bipiperidin-1-yl]-N,N-dimethylbenzamide]: the pEC50 in experiment [1] was 5.87; in experiment [2], 6.39. In addition, in experiment [1] (setting [3]), the “LXR alpha act @ max dose (%)” value stood at 25%. The “LXR beta act @ max dose (%)” value in experiment [2] (setting [3]) was 93%.
Regarding `C=C(C)CC(O)(C(=O)N1CCC(C2CCN(c3ccc(C(=O)N(C)C)c(Cl)c3)CC2)CC1)C(F)(F)F` (centres unmarked) [Example A-56, 2-chloro-4-{1′-[2-hydroxy-4-methyl-2-(trifluoromethyl)pent-4-enoyl]-4,4′-bipiperidin-1-yl}-N,N-dimethylbenzamide], the pEC50 in experiment [1] is 5.72; in experiment [2], 7.19. In addition, the Emax in experiment [1] (setting [3]) was 68%; in experiment [2] (setting [3]), 120%.
The corresponding values for `C=CCC(O)(C(=O)N1CCC(C2CCN(c3ccc(C(=O)N(C)C)c(Cl)c3)CC2)CC1)C(F)(F)F` (centres unmarked) [Example A-57, 2-chloro-4-{1′-[2-hydroxy-2-(trifluoromethyl)pent-4-enoyl]-4,4′-bipiperidin-1-yl}-N,N-dimethylbenzamide] are 5.32, 6.51, 58% and 112%.
The corresponding values for `CN(C)C(=O)c1ccc(N2CCC(C3CCN(C(=O)C(C)(C)c4ccc(O)cc4)CC3)CC2)cc1Cl` [Example A-58, 2-chloro-4-{1′-[2-(4-hydroxyphenyl)-2-methylpropanoyl]-4,4′-bipiperidin-1-yl}-N,N-dimethylbenzamide] are 5.43, 7.00, 59% and 112%.
For `CC(=O)Oc1ccc(C(C)(C)C(=O)N2CCC(C3CCN(c4ccc(C(=O)N(C)C)c(Cl)c4)CC3)CC2)cc1` [Example A-59, 4-(2-{1′-[3-chloro-4-(dimethylcarbamoyl)phenyl]-4,4′-bipiperidin-1-yl}-1,1-dimethyl-2-oxoethyl)phenyl acetate], in that order: 5.58, 7.04, 54% and 106%.
As for `CN(C)C(=O)c1ccc(N2CCC(C3CCN(C(=O)C(C)(C)c4ccc(Cl)cc4Cl)CC3)CC2)cc1Cl` [Example A-60, 2-chloro-4-{1′-[2-(2,4-dichlorophenyl)-2-methylpropanoyl]-4,4′-bipiperidin-1-yl}-N,N-dimethylbenzamide], the values for the pEC50 in experiment [1] and in experiment [2] were 6.14 and 7.48, respectively. Moreover, the Emax is 32% in experiment [1] (setting [3]) and 109% in experiment [2] (setting [3]).
The corresponding values for `CCC(F)(C(=O)N1CCC(C2CCN(c3ccc(C(=O)N(C)C)c(Cl)c3)CC2)CC1)c1ccccc1` (centres unmarked) [Example A-61, 2-chloro-4-[1′-(2-fluoro-2-phenylbutanoyl)-4,4′-bipiperidin-1-yl]-N,N-dimethylbenzamide] are 6.05, 7.25, 53% and 115%.
Take `CN(C)C(=O)c1ccc(N2CCC(C3CCN(C(=O)C(F)(F)c4ccccc4Cl)CC3)CC2)cc1Cl` [Example A-62, 2-chloro-4-{1′-[(2-chlorophenyl)(difluoro)acetyl]-4,4′-bipiperidin-1-yl}-N,N-dimethylbenzamide]: the pEC50 was 6.11 in experiment [1] and 7.66 in experiment [2]. The Emax turned out to be 74% in experiment [1] (setting [3]) and 131% in experiment [2] (setting [3]).
On to `CN(C)C(=O)c1ccc(N2CCC(C3CCN(C(=O)C(F)(F)c4ccc(F)cc4)CC3)CC2)cc1Cl` [Example A-63, 2-chloro-4-{1′-[difluoro(4-fluorophenyl)acetyl]-4,4′-bipiperidin-1-yl}-N,N-dimethylbenzamide], for which the figures for the pEC50 in experiment [1] and in experiment [2] were 5.54 and 6.66, respectively. Besides, the Emax in experiment [1] (setting [3]) amounted to 52%; in experiment [2] (setting [3]), 114%.
With `CN(C)C(=O)c1ccc(N2CCC(C3CCN(C(=O)C(F)(F)c4ccccc4)CC3)CC2)cc1Cl` [Example A-64, 2-chloro-4-{1′-[difluoro(phenyl)acetyl]-4,4′-bipiperidin-1-yl}-N,N-dimethylbenzamide], the pEC50 in experiment [1] is 6.03; in experiment [2], 7.27. In addition, the Emax in experiment [1] (setting [3]) is 74%; in experiment [2] (setting [3]), 144%.
`CN(C)C(=O)c1ccc(N2CCC(C3CCN(C(=O)C4(c5ccc(O)cc5)CCCC4)CC3)CC2)cc1Cl` [Example A-67, 2-chloro-4-(1′-{[1-(4-hydroxyphenyl)cyclopentyl]carbonyl}-4,4′-bipiperidin-1-yl)-N,N-dimethylbenzamide]: the “LXR alpha IP (nM)” value in experiment [1] is “NO IP”. Further, the Emax in experiment [1] (setting [3]) came to 26%; in experiment [2] (setting [3]), 75%. In addition, the pEC50 in experiment [2] is 6.97.
For `Cc1cccc(C(O)(C(=O)N2CCC(C3CCN(c4ccc(C(=O)N(C)C)c(Cl)c4)CC3)CC2)C(F)(F)F)c1` (centres unmarked) [Example A-68, 2-chloro-N,N-dimethyl-4-{1′-[3,3,3-trifluoro-2-hydroxy-2-(3-methylphenyl)propanoyl]-4,4′-bipiperidin-1-yl}benzamide], in that order: “NO IP”, 27%, 91% and 6.55.
`CN(C)C(=O)c1ccc(N2CCC(C3CCN(C(=O)C(F)(F)c4cccc(F)c4)CC3)CC2)cc1Cl` [Example A-69, 2-chloro-4-{1′-[difluoro(3-fluorophenyl)acetyl]-4,4′-bipiperidin-1-yl}-N,N-dimethylbenzamide]: the pEC50 in experiment [1] is 5.75; in experiment [2], 7.07. Also, the Emax was determined as 51% in experiment [1] (setting [3]) and 113% in experiment [2] (setting [3]).
As for `CCCC(O)(C(=O)N1CCC(C2CCN(c3ccc(C(=O)N(C)C)c(Cl)c3)CC2)CC1)C(F)(F)F` (centres unmarked) [Example A-70, 2-chloro-4-{1′-[2-hydroxy-2-(trifluoromethyl)pentanoyl]-4,4′-bipiperidin-1-yl}-N,N-dimethylbenzamide], the pEC50 in experiment [1] was 5.52; in experiment [2], 6.75. In addition, the Emax in experiment [1] (setting [3]) came out at 52%; in experiment [2] (setting [3]) it was 109%.
